The text below walks through data of ChEMBL document CHEMBL1129160, “Non thiazolidinedione antihyperglycaemic agents. 2: -Carbon substituted -phenylpropanoic acids1” (Bioorg Med Chem Lett, 1996).

A word on the Ki: it is the dissociation constant of the complex between target and ligand, obtained from inhibition or displacement.

Molecules are shown by their SMILES.

For one test, the system named is Mus musculus. The test is described as follows: In vivo anti-hyperglycaemic activity in mice. The class given is functional.
Test [1] has as its target T1, Peroxisome proliferator-activated receptor gamma (Homo sapiens, UniProt P37231).
T1 sequence (P37231 whole entry): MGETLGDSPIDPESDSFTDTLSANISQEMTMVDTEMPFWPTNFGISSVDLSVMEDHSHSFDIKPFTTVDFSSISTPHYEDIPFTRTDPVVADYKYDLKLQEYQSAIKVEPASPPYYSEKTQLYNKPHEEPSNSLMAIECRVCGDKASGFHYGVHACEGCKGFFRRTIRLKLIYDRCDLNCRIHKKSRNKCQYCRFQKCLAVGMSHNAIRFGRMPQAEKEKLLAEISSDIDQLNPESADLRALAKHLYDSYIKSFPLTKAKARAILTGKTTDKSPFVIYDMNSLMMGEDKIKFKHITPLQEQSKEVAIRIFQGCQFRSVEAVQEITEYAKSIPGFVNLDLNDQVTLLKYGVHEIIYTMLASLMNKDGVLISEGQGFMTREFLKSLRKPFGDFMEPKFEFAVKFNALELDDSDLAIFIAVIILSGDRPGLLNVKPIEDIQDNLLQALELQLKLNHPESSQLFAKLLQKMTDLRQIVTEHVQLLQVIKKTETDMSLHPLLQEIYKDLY

In test [2] the target is T1, Peroxisome proliferator-activated receptor gamma. The test is described as follows: Inhibition of [125I]SB 236636 binding to human PPAR gamma receptor.

In the test on Mus musculus, `COC(=O)C(Cc1ccc(OCCN(C)c2nc3ccccc3o2)cc1)C(=O)OC` had an ED25 of 10 µM/kg.
On the same count and under the same terms, to `COCC(Cc1ccc(OCCN(C)c2nc3ccccc3o2)cc1)C(=O)O` (centres undefined) belongs 30 µM/kg; to `CCOC(Cc1ccc(OCCN(C)c2nc3ccccc3o2)cc1)C(=O)O` (centres undefined), 0.1 µM/kg.
Still for that read-out and setting: to `CN(CCOc1ccc(CC(C#N)C(=O)O)cc1)c1nc2ccccc2o1` (centres undefined) belongs 10 µM/kg; to `CN(CCOc1ccc(CC2SC(=O)NC2=O)cc1)c1nc2ccccc2o1` (centres undefined) [BRL-48482], 3 µM/kg; to `COC(=O)C(CCc1ccccc1)Cc1ccc(OCCN(C)c2nc3ccccc3o2)cc1` (centres undefined), 100 µM/kg.
In turn, `CCCC(Cc1ccc(OCCN(C)c2nc3ccccc3o2)cc1)C(=O)O` (centres undefined) had an ED25 in the test on Mus musculus of 10 µM/kg.
`COC(=O)C(Cc1ccc(OCCN(C)c2nc3ccccc3o2)cc1)C(C)=O` (centres undefined) showed an ED25 in the test on Mus musculus of 300 µM/kg.
The compound `CN(CCOc1ccc(CC(CCCCCc2ccccc2)C(=O)O)cc1)c1nc2ccccc2o1` (centres undefined) had an ED25 in the test on Mus musculus of 3 µM/kg.
Same read-out and setting: to `CCOC(=O)C(Cc1ccc(OCCN(C)c2nc3ccccc3o2)cc1)C(=O)c1ccccc1` (centres undefined) belongs more than 1000 µM/kg; to `CC(C)CCC(Cc1ccc(OCCN(C)c2nc3ccccc3o2)cc1)C(=O)O` (centres undefined), 100 µM/kg.
In the test with Mus musculus, `CN(CCOc1ccc(CC(CCCc2ccccc2)C(=O)O)cc1)c1nc2ccccc2o1` (centres undefined) had an ED25 of 3 µM/kg. In test [1], this compound gave a Ki of 30 nM.
`CN(CCOc1ccc(CC(CCOc2ccccc2)C(=O)O)cc1)c1nc2ccccc2o1` (centres undefined): the ED25 in the test on Mus musculus worked out at 30 µM/kg.
On the same count and under the same terms, then `CN(CCOc1ccc(CC(CCCCc2ccccc2)C(=O)O)cc1)c1nc2ccccc2o1` (centres undefined), with 100 µM/kg.
The compound `CN(CCOc1ccc(CC(C/C=C/c2ccccc2)C(=O)O)cc1)c1nc2ccccc2o1` (centres undefined) returned an ED25 in the test on Mus musculus of 30 µM/kg.
Still for that read-out and setting: then `COC(=O)C(Cc1ccccc1)Cc1ccc(OCCN(C)c2nc3ccccc3o2)cc1` (centres undefined), with 300 µM/kg; and `CN(CCOc1ccc(CC(C(=O)O)c2ccccc2)cc1)c1nc2ccccc2o1` (centres undefined), with 30 µM/kg.
On to `CC(Cc1ccc(OCCN(C)c2nc3ccccc3o2)cc1)C(=O)O` (centres undefined), for which the ED25 with Mus musculus is 1000 µM/kg. The affinity in test [2], expressed as Ki, was 1500 nM.
As to `C=CCC(Cc1ccc(OCCN(C)c2nc3ccccc3o2)cc1)C(=O)O` (centres undefined), in the test on Mus musculus, the ED25 was found to be 30 µM/kg.
On the same count and under the same terms, then `Cc1c(C)c2c(c(C)c1O)CCC(C)(COc1ccc(CC3SC(=O)NC3=O)cc1)O2` (centres undefined) [TROGLITAZONE], with 400 µM/kg; and `CCCCCCC(Cc1ccc(OCCN(C)c2nc3ccccc3o2)cc1)C(=O)O` (centres undefined), with 10 µM/kg.
On the same count and under the same terms, then `CCC(Cc1ccc(OCCN(C)c2nc3ccccc3o2)cc1)C(=O)O` (centres undefined), with 30 µM/kg.
